This is an account of results in patent US9738637B2, “Histone demethylase inhibitors” (Quanticel Pharmaceuticals, Inc., priority 2013, dated 2017).

The target in experiment [1] is Jarid1B (Homo sapiens (Human), UniProt Q9UGL1). In words: Jarid1B in vitro enzyme inhibition assay (TR-FRET). The format is biochemical. Conditions: TR-FRET, H3K4me3-biotin peptide; read-out: IC50 Jarid1B. The method, then: (§1) This assay determines the ability of a test compound to inhibit Jarid1A, Jarid1B, JMJD2C, and JMJD2A demethylase activity.
The reaction mixture was incubated at room temperature for 30 minutes, and terminated by the addition of 6 μl of 5 mM EDTA in LANCE detection buffer containing 50 nM Phycolink Streptavidin-allophycocyanin and 2 nM Europium-anti-H3K4me1-2 antibody.
(§2) The ability of the compounds disclosed herein to inhibit demethylase activity was quantified and the respective IC50 value was determined.

Experiment [2] deals with Jarid1A (Homo sapiens (Human), UniProt P29375). Description: Jarid1A in vitro enzyme inhibition assay (TR-FRET). Type of experiment: biochemical. Particulars: H3K4me3-biotin peptide. The method, then:
as §1
The enzymatic assay of Jarid1A activity is based upon Time Resolved-Fluorescence Resonance Energy Transfer (TR-FRET) detection.
The assay reaction was initiated by the following: 2 μl of the mixture of 900 nM H3K4me3-biotin labeled peptide and 6 μM alpha-ketoglutaric acid with 2 μl of 11-point serial diluted inhibitor in 3% DMSO was added to each well of plate, followed by the addition of 2 μl of 3 nM Jarid1A to initiate the reaction. The reaction mixture was incubated at room temperature for 30 minutes, and terminated by the addition of 6 μl of 5 mM EDTA in LANCE detection buffer containing 50 nM Phycolink Streptavidin-allophycocyanin and 2 nM Europium-anti-H3K4me1-2 antibody.
as §2

For experiment [3], the system named is KDM5A and KDM5B. Description: In vitro cell-based assay, ZR-75-1 cell line: tri-methyl H3K4 immuno-blotting (cellular inhibition of KDM5A/B). Particulars: ZR-75-1 breast cancer cells, 72 hours, read-out: IC50 ZR-75-1 cell-MOA. The text has this:
This quantitative immuno-blotting assay measures the amount tri-methylated histone H3 at amino acid Lysine number 4, a specific substrate […] of the direct enzymatic activity of the histone demethylases KDM5A and KDM5B from extracts of the ZR-75-1 breast cancer cell line.
This assay is a fluorometric immunoassay for the quantification of tri-methyl H3K4 extracted from cells treated with test compound and is used as a measure of the cellular inhibition of KDM5A/B.
Cells were left in the presence of test compound for 72 hours. Extracts were prepared containing all of the cellular histone material using detergent based lysis and sonication methods. These lysates were subsequently normalized for total protein content using a colorimetric bicinchonic acid assay (MicroBCA Pierce/Thermo Scientific). Normalized cell extracts were then subjected to typical immuno-blotting procedures using NuPage reagents (Life Technologies). Electrophoretically separated histones were then transferred and immobilized using polyvinylidene difluoride membrane (Immobilon-FL Millipore). The amount of tri-methylated lysine 4 of histone H3 was detected using an antibody specific to the tri-methylated state (Cell Signaling Technologies) and quantified on an infrared imager using a densitometry software package (Odyssey CLx, Image Studio, Li-Cor). This background subtracted densitometry value was reported as a ration of the GAPDH amount for that sample and then calculated as a percent of the DMSO treated sample. The software package XL-fit (IDBS) was then used to calculate a relative IC50 value for the dilution series of a given test compound according to the equation: fit=(D+((Vmax*(x^n))/((x^n)+(Km^n)))).

The target of experiment [4] is JMJD2C (Homo sapiens (Human), UniProt Q9H3R0). In words: JMJD2C in vitro enzyme inhibition assay (TR-FRET). Type of experiment: biochemical. Particulars: TR-FRET, H3K9me3-biotin peptide; read-out: IC50 JNJD2C. As to the method: as §1
Reaction product was determined quantitatively by TR-FRET after the addition of detection reagent Phycolink Streptavidin-allophycocyanin (Prozyme) and Europium-anti-di-methylated histone H3 lysine 9 (H3K9me2) antibody (PerkinElmer) in the presence of 5 mM EDTA in LANCE detection buffer (PerkinElmer) at a final concentration of 50 nM and 1 nM, respectively.
The assay reaction was initiated by the following: 2 μl of the mixture of 900 nM H3K9me3-biotin labeled peptide and 6 μM alpha-ketoglutaric acid with 2 μl of 11-point serial diluted inhibitor in 3% DMSO were added to each well of the plate, followed by the addition of 2 μl of 0.9 nM JMJD2C to initiate the reaction. The reaction mixture was incubated at room temperature for 30 minutes, and terminated by the addition of 6 μl of 5 mM EDTA in LANCE detection buffer containing 100 nM Phycolink Streptavidin-allophycocyanin and 2 nM Europium-anti-H3K9me2 antibody.
as §2
(In general: Time-resolved FRET reads energy transfer from a long-lived donor to a nearby acceptor.)

Chain of Jarid1A (P29375 1-1090): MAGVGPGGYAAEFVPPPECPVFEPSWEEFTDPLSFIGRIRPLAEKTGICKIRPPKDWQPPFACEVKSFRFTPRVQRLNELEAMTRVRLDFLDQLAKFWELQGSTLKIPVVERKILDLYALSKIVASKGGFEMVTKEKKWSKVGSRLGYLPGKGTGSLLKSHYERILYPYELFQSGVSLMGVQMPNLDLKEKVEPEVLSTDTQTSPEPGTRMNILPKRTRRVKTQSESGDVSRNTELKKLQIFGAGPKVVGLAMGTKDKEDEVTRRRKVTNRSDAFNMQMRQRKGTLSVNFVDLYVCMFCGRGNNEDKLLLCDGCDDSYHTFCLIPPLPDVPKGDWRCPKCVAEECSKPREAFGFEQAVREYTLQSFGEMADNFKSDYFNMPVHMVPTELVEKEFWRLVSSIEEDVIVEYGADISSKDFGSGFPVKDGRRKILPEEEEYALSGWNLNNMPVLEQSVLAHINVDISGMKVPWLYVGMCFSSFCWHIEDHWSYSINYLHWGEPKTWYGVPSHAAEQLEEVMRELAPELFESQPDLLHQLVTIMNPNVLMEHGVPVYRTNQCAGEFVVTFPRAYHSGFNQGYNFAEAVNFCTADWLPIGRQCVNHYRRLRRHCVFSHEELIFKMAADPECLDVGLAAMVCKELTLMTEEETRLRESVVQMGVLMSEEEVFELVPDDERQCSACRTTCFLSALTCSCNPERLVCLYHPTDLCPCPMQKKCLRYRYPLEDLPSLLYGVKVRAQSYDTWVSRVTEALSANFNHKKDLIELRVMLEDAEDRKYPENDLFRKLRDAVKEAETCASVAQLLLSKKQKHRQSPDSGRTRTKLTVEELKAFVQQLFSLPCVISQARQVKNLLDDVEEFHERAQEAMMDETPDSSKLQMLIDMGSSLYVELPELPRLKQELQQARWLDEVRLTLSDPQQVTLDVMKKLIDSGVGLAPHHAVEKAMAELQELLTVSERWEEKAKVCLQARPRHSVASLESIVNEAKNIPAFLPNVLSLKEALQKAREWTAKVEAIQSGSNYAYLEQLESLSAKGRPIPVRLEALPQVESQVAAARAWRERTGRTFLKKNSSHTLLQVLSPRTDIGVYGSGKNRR
Chain of JMJD2C (Q9H3R0 2-372): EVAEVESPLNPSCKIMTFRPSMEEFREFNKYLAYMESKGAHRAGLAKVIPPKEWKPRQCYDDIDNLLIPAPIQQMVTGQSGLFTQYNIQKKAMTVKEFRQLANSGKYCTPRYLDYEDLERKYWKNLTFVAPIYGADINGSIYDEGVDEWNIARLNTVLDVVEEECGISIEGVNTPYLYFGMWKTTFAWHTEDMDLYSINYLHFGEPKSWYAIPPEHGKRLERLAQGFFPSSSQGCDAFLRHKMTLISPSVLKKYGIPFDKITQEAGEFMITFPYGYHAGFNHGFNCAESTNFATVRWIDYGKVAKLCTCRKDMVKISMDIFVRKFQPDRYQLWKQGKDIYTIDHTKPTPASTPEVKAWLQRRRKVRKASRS
Chain of Jarid1B (Q9UGL1 2-751): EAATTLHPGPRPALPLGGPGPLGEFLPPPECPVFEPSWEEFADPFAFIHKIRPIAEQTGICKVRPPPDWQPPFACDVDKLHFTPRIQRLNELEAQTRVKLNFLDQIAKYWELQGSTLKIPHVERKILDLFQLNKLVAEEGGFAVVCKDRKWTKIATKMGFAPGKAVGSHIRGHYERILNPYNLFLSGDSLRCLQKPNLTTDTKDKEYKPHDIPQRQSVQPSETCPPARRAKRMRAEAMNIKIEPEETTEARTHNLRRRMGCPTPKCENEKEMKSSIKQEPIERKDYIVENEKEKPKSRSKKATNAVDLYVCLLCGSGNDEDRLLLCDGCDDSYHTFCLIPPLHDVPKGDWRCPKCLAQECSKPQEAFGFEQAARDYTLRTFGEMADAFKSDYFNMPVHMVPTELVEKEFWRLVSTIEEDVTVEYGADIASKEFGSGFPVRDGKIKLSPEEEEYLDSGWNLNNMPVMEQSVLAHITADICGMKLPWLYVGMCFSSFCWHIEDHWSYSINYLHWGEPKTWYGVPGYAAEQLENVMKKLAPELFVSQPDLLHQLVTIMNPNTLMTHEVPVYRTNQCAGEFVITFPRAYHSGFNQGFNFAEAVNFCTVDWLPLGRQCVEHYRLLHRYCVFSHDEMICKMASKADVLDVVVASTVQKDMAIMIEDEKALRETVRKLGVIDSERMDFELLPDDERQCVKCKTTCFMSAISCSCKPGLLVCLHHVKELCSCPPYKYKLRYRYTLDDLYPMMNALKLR

`Cc1cccc(OCc2cc3nccc(C(=O)O)c3[nH]2)c1` [Example 74, 2-[(3-methylphenoxy)methyl]-1H-pyrrolo[3,2-b]pyridine-7-carboxylic acid]: the IC50 (as a rule, the concentration needed to halve the response being measured) in experiment [1] was < 100 nM; in experiment [2], < 100 nM; in experiment [3], > 10000 nM; in experiment [4] it was < 100 nM.

Take `COC(=O)c1ccnc2cc(C(C)(O)c3ccccc3)[nH]c12` (racemic) [Example 45, (±)-methyl 2-(1-hydroxy-1-phenylethyl)-1H-pyrrolo[3,2-b]pyridine-7-carboxylate]: the IC50 in experiment [3] was > 10000 nM.

`O=C(O)c1ccnc2cc(COc3ccc(F)cc3)[nH]c12` [Example 60, 2-[(4-fluorophenoxy)methyl]-1H-pyrrolo[3,2-b]pyridine-7-carboxylic acid]: the IC50 in experiment [1] was < 100 nM; in experiment [2] it was < 100 nM; in experiment [3], 1000 to 10000 nM; in experiment [4], 100 to 1000 nM.

`Cc1cccc(Cc2cc3nccc(C(=O)O)c3[nH]2)c1` [Example 36, 2-[(3-methylphenyl)methyl]-1H-pyrrolo[3,2-b]pyridine-7-carboxylic acid]: the IC50 in experiment [1] is 100 to 1000 nM; in experiment [2], < 100 nM; in experiment [3], > 10000 nM; in experiment [4] it was < 100 nM.

As to `COC(=O)c1ccnc2cc(C(O)C3CCOCC3)[nH]c12` (racemic) [Example 42, (±)-methyl 2-[hydroxy(oxan-4-yl)methyl]-1H-pyrrolo[3,2-b]pyridine-7-carboxylate], in experiment [3], the half-inhibitory concentration (IC50) is > 10000 nM.

`O=C(O)c1ccnc2cc(COc3ccc(Cl)cc3)[nH]c12` [Example 64, 2-[(4-chlorophenoxy)methyl]-1H-pyrrolo[3,2-b]pyridine-7-carboxylic acid]: the IC50 is < 100 nM in experiment [1], < 100 nM in experiment [2], 1000 to 10000 nM in experiment [3] and < 100 nM in experiment [4].

For the compound `COc1cccc(Cc2cc3nccc(C(=O)O)c3[nH]2)c1` [Example 34, 2-[(3-methoxyphenyl)methyl]-1H-pyrrolo[3,2-b]pyridine-7-carboxylic acid], the IC50 in experiment [1] is 100 to 1000 nM; in experiment [2], < 100 nM; in experiment [3] it was > 10000 nM; in experiment [4], 100 to 1000 nM.

Consider `O=C(O)c1ccnc2cc(Cc3ccc(Cl)cc3)[nH]c12` [Example 44, 2-[(4-chlorophenyl)methyl]-1H-pyrrolo[3,2-b]pyridine-7-carboxylic acid], for which the concentration for half-maximal inhibition (IC50) is < 100 nM in experiment [1], < 100 nM in experiment [2], > 10000 nM in experiment [3] and 100 to 1000 nM in experiment [4].

Consider `Cc1ccccc1OCc1cc2nccc(C(=O)O)c2[nH]1` [Example 66, 2-[(2-methylphenoxy)methyl]-1H-pyrrolo[3,2-b]pyridine-7-carboxylic acid], for which the half-maximal inhibitory concentration (IC50) was < 100 nM in experiment [1], < 100 nM in experiment [2], > 10000 nM in experiment [3] and 100 to 1000 nM in experiment [4].

For `COC(=O)c1ccnc2cc(C(O)c3ccnn3C)[nH]c12` (racemic) [Example 47, (±)-methyl 2-[hydroxy-(2-methylpyrazol-3-yl)methyl]-1H-pyrrolo[3,2-b]pyridine-7-carboxylate], in experiment [3], the IC50 was > 10000 nM.

As for `O=C(O)c1ccnc2cc(C(O)c3ccccc3Cl)[nH]c12` (racemic) [Example 72, (±)-2-[(2-chlorophenyl)-hydroxymethyl]-1H-pyrrolo[3,2-b]pyridine-7-carboxylic acid], the IC50 in experiment [1] was < 100 nM; in experiment [2], < 100 nM; in experiment [3], > 10000 nM; in experiment [4] it was 100 to 1000 nM.

For the compound `O=C(O)c1ccnc2cc(Cc3ccc(F)cc3)[nH]c12` [Example 101, 2-[(4-fluorophenyl)methyl]pyrrolo[3,2-b]pyridine-7-carboxylic acid], the concentration for half-maximal inhibition (IC50) in experiment [1] is < 100 nM; in experiment [2], < 100 nM; in experiment [3] it was > 10000 nM; in experiment [4], < 100 nM.

As for `COc1ccc(-c2cc3nccc(C(=O)O)c3[nH]2)c(C)c1` [Example 16, 2-(4-methoxy-2-methylphenyl)-1H-pyrrolo[3,2-b]pyridine-7-carboxylic acid], the IC50 in experiment [1], in experiment [2] and in experiment [4] was 100 to 1000 nM throughout.

For the compound `O=C(O)c1ccnc2cc(COc3ccc4c(c3)CCO4)[nH]c12` [Example 76, 2-(2,3dihydro-1-benzofuran-5-yloxymethyl)-1H-pyrrolo[3,2-b]pyridine-7-carboxylic acid], the IC50 is < 100 nM in experiment [1], < 100 nM in experiment [2] and 100 to 1000 nM in experiment [4].

Consider `O=C(O)c1ccnc2cc(C(=O)N3CCCC(c4ccccc4)C3)[nH]c12` (stereo not drawn) [Example 120, 2-[(3-phenylpiperidyl)carbonyl]pyrrolo-[3,2-b]pyridine-7-carboxylic acid], for which the concentration for half-maximal inhibition (IC50) in experiment [1], in experiment [2] and in experiment [4] was 100 to 1000 nM in each case.

On to `O=C(O)c1ccnc2cc(C(=O)N3CCc4ccccc4C3)[nH]c12` [Example 122, 2-(2-1,2,3,4-tetrahydroisoquinolylcarbonyl)-pyrrolo[3,2-b]pyridine-7-carboxylic acid], for which the half-inhibitory concentration (IC50) in experiment [1] was < 100 nM; in experiment [2], < 100 nM; in experiment [4], 100 to 1000 nM.

Regarding `CCCc1cc2nccc(C(=O)O)c2[nH]1` [Example 8, 2-propyl-1H-pyrrolo[3,2-b]pyridine-7-carboxylic acid], the half-inhibitory concentration (IC50) in experiment [1] is 1000 to 10000 nM; in experiment [2], 1000 to 10000 nM; in experiment [4] it was < 100 nM.

Turning to `O=C(O)c1ccnc2cc(C(O)c3ccccc3)[nH]c12` (racemic) [Example 20, (±)-2-[hydroxy(phenyl)methyl]-1H-pyrrolo[3,2-b]pyridine-7-carboxylic acid], the half-inhibitory concentration (IC50) in experiment [1], in experiment [2] and in experiment [4] was < 100 nM throughout.

In the case of `CC(O)c1cc2nccc(C(=O)O)c2[nH]1` (racemic) [Example 18, (±)-2-(1-hydroxyethyl)-1H-pyrrolo[3,2-b]pyridine-7-carboxylic acid], the IC50 in experiment [1] is 100 to 1000 nM; in experiment [2] it was 100 to 1000 nM; in experiment [4] it was < 100 nM.

In the case of `COc1ccc(OCc2cc3nccc(C(=O)O)c3[nH]2)cc1` [Example 93, 2-[(4-methoxyphenoxy)methyl]-1H-pyrrolo[3,2-b]pyridine-7-carboxylic acid], the figures for the 50% inhibitory concentration (IC50) in experiment [1], in experiment [2] and in experiment [4] were < 100 nM, 100 to 1000 nM and 100 to 1000 nM, respectively.

As to `O=C(O)c1ccnc2cc(COc3ccc(C(F)(F)F)cc3)[nH]c12` [Example 68, 2-[[4-(trifluoromethyl)phenoxy]methyl]-1H-pyrrolo[3,2-b]pyridine-7-carboxylic acid], the half-inhibitory concentration (IC50) was < 100 nM in experiment [1], < 100 nM in experiment [2] and 100 to 1000 nM in experiment [4].

Turning to `CCC(O)c1cc2nccc(C(=O)OC)c2[nH]1` (racemic) [Example 25, (±)-methyl 2-(1-hydroxypropyl)-1H-pyrrolo[3,2-b]pyridine-7-carboxylate], the IC50 in experiment [1], in experiment [2] and in experiment [4] was > 10000 nM in each case.

Take `O=C(O)c1ccnc2cc(COc3ccccc3F)[nH]c12` [Example 95, 2-[(2-fluorophenoxy)methyl]-1H-pyrrolo[3,2-b]pyridine-7-carboxylic acid]: the concentration for half-maximal inhibition (IC50) in experiment [1], in experiment [2] and in experiment [4] was 100 to 1000 nM throughout.

`N#CCCc1cc2nccc(C(=O)O)c2[nH]1` [Example 58, 2-(2-cyanoethyl)-1H-pyrrolo[3,2-b]pyridine-7-carboxylic acid]: the IC50 in experiment [1] was 100 to 1000 nM; in experiment [2] it was 100 to 1000 nM; in experiment [4], < 100 nM.
